Tests used:
E. coli = experiment: Growth of bacteria in LB broth, CFU over time; assay type: cell-based, Escherichia coli; details: 37° C., Adk 20, 50, 100 μg/ml, ampicillin 100 μg/ml, FIG. 2
Protocol: (§1) To verify the antibacterial activity of the recombinant ADK protein obtained in Example 1, the effect of the ADK protein on the growth of gram-negative bacteria such as E. coli and P. aeruginosa and a gram-positive bacterium such as S. aureus was analyzed.
(§2) More specifically, 1×10^5 CFU of strains were put into a 10 ml LB broth, and an antibiotic (ampicillin) and the ADK protein were added respectively according to five conditions as follows (Group 1: LB broth media with 100 μg/ml ampicillin, Group 2: LB broth media with 20 μg/ml Adk, Group 3: LB broth media with 50 μg/ml Adk, Group 4: LB broth media with 100 μg/ml Adk, Group 5: Non-antibacterial agent LB broth media). The strains were cultured in a 37° C. shaking incubator, 100 μl aliquots of each group was taken at 3-hour intervals and diluted with an LB broth in predetermined ratios, followed by plating the resulting cells on an LB agar (Biobasic, Amherst, N.Y.) plate. The cells were cultured again in a 37° C. incubator overnight, and then CFU values over time were calculated by counting the number of colonies on the LB agar plate.

P. aeruginosa = experiment: Growth of bacteria in LB broth, CFU over time; assay type: cell-based, Pseudomonas aeruginosa; details: 37° C., Adk 20, 50, 100 μg/ml, ampicillin 100 μg/ml, FIG. 3
S. aureus = experiment: Growth of bacteria in LB broth, CFU over time; assay type: cell-based, Staphylococcus aureus; details: 37° C., Adk 20, 50, 100 μg/ml, ampicillin 100 μg/ml, FIG. 4
Protocol: as §1, §2

E. coli K1 [1] = experiment: Sepsis animal model, serum analysis; assay type: in vivo, BALB/c mice; details: 12 hours after sepsis induction; LAL assay kit; FIG. 15
Protocol: Twelve hours after sepsis induction, levels of inflammatory cytokines (TNF-α, IL-6, and IL-1β), AST, ALT, BUN, and endotoxins in sera isolated from mice were analyzed. Here, a cytokine concentration was measured using an ELISA kit (eBiosciences, San Diego, Calif.), and endotoxins were analyzed using an endotoxin detection kit (LAL assay kit, Thermo Fisher Scientific, Bremen, Germany).

E. coli K1 [2] = experiment: Sepsis animal model, survival rate; assay type: in vivo, BALB/c mice; details: gentamicin 100 μg/kg intraperitoneally; FIG. 12

For `CC1(C)S[C@@H]2[C@H](NC(=O)[C@H](N)c3ccccc3)C(=O)N2[C@H]1C(=O)O` [ampicillin], the “growth of E. coli (CFU over time)” value (E. coli) was “inhibited”, the “growth of P. aeruginosa (CFU over time)” value (P. aeruginosa) was “inhibited” and the “growth of S. aureus (CFU over time)” value (S. aureus) was “inhibited”.

gentamicin was tested, and the “amount of endotoxins in mouse sera” value (E. coli K1 [1]) was “a significant difference from the negative control (CON) was not observed” and the “time after sepsis induction at which all mice were dead” value (E. coli K1 [2]) was 30 h.

Reference: patent publication US10543258B2, “Antibacterial composition containing ADK protein as active ingredient, or composition for preventing or treating sepsis” (priority 2014, dated 2020)
